ChEMBL document CHEMBL5727000, “Carboxamide or sulfonamide substituted thiazoles and related derivatives as modulators for the orphan nuclear receptor ROR[γ]” (2019)

Columns and labels:
[1] = (§1) RORgamma Gal4 Reporter Gene Assay (REN): Cells were incubated for additional 16 h before renilla (REN) luciferase activities were measured sequentially in the same cell extract using a Dual-Light-Luciferase-Assay system (Dyer et al., Anal. Biochem. 2000, 282:158). All experiments were done at least in triplicates.
[2] = as §1, with “(FF):” for “(REN):”, “firefly (FF)” for “renilla (REN)”

Row | SMILES | IC50 [1] [nM] | IC50 [2] [nM]
1 | CC(C)(C)NS(=O)(=O)c1ccc(-c2sc(C(=O)NC3CCOCC3)nc2CC2CCCCC2)cc1C(C)(C)C | 12.6 | 15.8
2 | CC(C)(C)c1cc(-c2nc(C(=O)N[C@H]3C[C@H](OC=O)C3)oc2CC2CCCCC2)cc(C2(C)CC2)c1 | 251 | 398
3 | CC(C)(C)NS(=O)(=O)c1ccc(-c2oc(C(=O)NC3CCS(=O)(=O)CC3)nc2CC2CCCCC2)c(Cl)c1Cl | 6.31 | 3.98
4 | CC(C)(O)CN1CCN(C(=O)c2nc(CC3CCCCC3)c(-c3ccc(S(=O)(=O)NC(C)(C)C)c4ccccc34)s2)CC1 | 126 | 158
5 | CC(C)(C)NS(=O)(=O)c1ccc(-c2sc(C(=O)NC3CCC3)nc2CC2CCCCC2)c(OC(F)(F)F)c1 | 6.31 | 10
6 | CC(C)(C)NS(=O)(=O)c1ccc(-c2oc(C(=O)N3CC4(CCS(=O)(=O)CC4)C3)nc2CC2CCCCC2)c2ccccc12 |  | 1260
7 | CC(C)(C)NS(=O)(=O)c1cnc(-c2sc(C(=O)N[C@H]3C[C@H](C(=O)O)C3)nc2CC2CCCCC2)nc1C(C)(C)C | 398 | 200
8 | O=CO[C@H]1C[C@H](NC(=O)c2nc(CC3CCCCC3)c(-c3ccc(OC(F)(F)F)c4ccccc34)s2)C1 | 126 | 126
9 | COc1ccc(-c2sc(C(=O)N[C@H]3C[C@H](OC=O)C3)nc2CC2CCCCC2)c2ccccc12 | 251 | 251
10 | CC(C)(O)CNC(=O)c1nc(C(=O)C2CCC(C)(C)CC2)c(-c2ccc(S(=O)(=O)NC(C)(C)C)c3ccccc23)s1 | 31.6 | 25.1
11 | CCOC(=O)c1nc(Cc2ccccc2)c(-c2ccc(S(=O)(=O)NC(C)(C)C)c3ccccc23)s1 | 10 | 12.6
12 | CC(C)(C)NS(=O)(=O)c1ccc(-c2sc(C(=O)NC3CCC3)[n+]([O-])c2CC2CCCCC2)c2ccccc12 | 31.6 | 31.6
13 | CC(=O)NS(=O)(=O)c1nc(-c2cc(C(C)(C)C)cc(C(C)(C)C)c2)c(CC2CCCCC2)s1 | < 20000 | < 20000
14 | O=C(NC1CCS(=O)(=O)CC1)c1nc(CC2CCCCC2)c(-c2ccc(C3(O)CCC3)c3ccccc23)s1 | 631 | 501
15 | CC(C)(C)NS(=O)(=O)c1ccc(-c2sc(C(=O)NC3CCC3)nc2CC2CCCCC2)c(OC(F)F)c1Cl | 5.01 | 10
16 | CC(C)(C)c1cc(-c2sc(C(=O)NC3CCC3)[n+]([O-])c2CC2CCCCC2)cc(C2(C)CC2)c1 | 25.1 | 31.6

Row | SMILES | IC50 [1] [nM] | IC50 [2] [nM]
17 | C[C@H](NS(=O)(=O)c1ccc(-c2sc(C(=O)N3CC4(C3)CS(=O)(=O)C4)nc2CC2CC2)c2ccccc12)C(F)(F)F | 6.31 | 6.31
18 | CC(C)(C)NS(=O)(=O)c1ccc(-c2sc(C(=O)NC3CCOCC3)nc2CC2CCCCC2)cc1C(F)(F)F | 5.01 | 10
19 | CC(C)(C)NS(=O)(=O)c1ccc(-c2sc(C(=O)N[C@H]3C[C@H](C(=O)O)C3)nc2Cc2ccccc2)c2ccccc12 |  | 26.5
20 | CC(C)(O)CNC(=O)c1nc(CC2CCCCC2)c(-c2ccc(S(=O)(=O)NC(C)(C)C)c(Cl)c2Cl)o1 | 31.6 | 39.8
21 | CC(C)(C)c1cc(-c2nc(C(N)=O)oc2CC2CCCCC2)cc(C(C)(C)C)c1 | < 20000 | < 20000
22 | C[C@H](NC(=O)c1cc(-c2sc(C(=O)NCC(C)(C)c3noc(=O)[nH]3)nc2CC2CCCCC2)cc(C2(C)CC2)c1)C(F)(F)F | 5.01 | 5.01
23 | O=CO[C@H]1C[C@H](NC(=O)c2nc(CC3CCCCC3)c(-c3ccc(OCC(F)(F)F)c4ccccc34)s2)C1 | 631 | 316
24 | CC(C)(O)CNC(=O)c1nc(CC2CCCCC2)c(-c2ccc(S(N)(=O)=O)c(Cl)c2Cl)s1 | < 20000 | < 20000
25 | CC(C)(C)c1cc(-c2sc(C(=O)NC3CC(OC=O)C3)nc2CC2CCCCC2)nc(C2(C)CC2)n1 (centres undefined) | 200 | 158
26 | CC(C)(C)NS(=O)(=O)c1ccc(-c2oc(C(=O)NC3CCOCC3)nc2CC2CCCCC2)c2ccccc12 | 12.6 | 15.8
27 | CC(C)(C)c1cc(-c2sc(S(=O)(=O)NC(=O)OCc3ccccc3)nc2CC2CCCCC2)cc(C2(C)CC2)c1 | < 20000 | < 20000
28 | CC(C)(O)CNC(=O)c1nc(CC2CCC2)c(-c2ccc(S(=O)(=O)NC(C)(C)C)c(Cl)c2OC(F)F)s1 | 39.8 | 31.6
29 | CC(C)(C)c1cc(-c2sc(C(=O)NC3CC(OC=O)C3)nc2CC2CCCCC2)nc(C(C)(C)C)n1 (centres undefined) | 126 | 126
30 | CC(C)(C)c1cc(-c2nc(C(=O)NC3CCS(=O)(=O)CC3)oc2CC2CCCCC2)cc(C2(C)CC2)c1 | 251 | 
31 | COCC(C)(C)NS(=O)(=O)c1ccc(-c2sc(C(=O)N3CC4(CCS(=O)(=O)CC4)C3)nc2CC2CCCCC2)c2ccccc12 | 39.8 | 
32 | CC(C)(C)NS(=O)(=O)c1ccc(-c2sc(C(=O)NC3CCS(=O)(=O)CC3)nc2CC2CCCCC2)c2ccccc12 | 1 | 
